≈ marks a conversion by molar mass, not a printed value. Where “and” joins values, the source holds several entries; their conditions need not be identical. Equal values may be shown once.
Key:
[1] = tested on: hepatic low density lipoprotein (LDL) receptors; conditions: animals; by increasing the expression of hepatic LDL receptors; cited from earlier work
[2] = tested on: human melanoma cell line (518A2); assay: Cell survival (cell counts) after 3 days of treatment; conditions: for Survival in % / Survival (%): 3 days, vs untreated controls (=100%)
Experimental: Induction of cell death was evaluated in a human melanoma cell line (518A2) in the presence of simvastatin and NVX-207 alone or in combination. […] After 3 days of treatment, cell numbers were counted. Percentages of survival given are cell numbers compared to untreated controls (=100%). Experiments were repeated three times. Mean values are given.

Apolipoprotein A1 = target: T1, Apolipoprotein A1 (Bos taurus, UniProt P15497); assay: Identification of NVX-207 binding proteins (Sulfo-SBED biotin label transfer, 2-D gel, MALDI-TOF-MS); conditions: Fetal Calf Serum, NVX-207 coupled to Sulfo-SBED at 5 μg/ml, with or without 20-fold molar excess of unlabeled NVX-207
T1 construct: from tissue; host or cells: fetal calf serum
T1 sequence (P15497 25-265 limits assumed): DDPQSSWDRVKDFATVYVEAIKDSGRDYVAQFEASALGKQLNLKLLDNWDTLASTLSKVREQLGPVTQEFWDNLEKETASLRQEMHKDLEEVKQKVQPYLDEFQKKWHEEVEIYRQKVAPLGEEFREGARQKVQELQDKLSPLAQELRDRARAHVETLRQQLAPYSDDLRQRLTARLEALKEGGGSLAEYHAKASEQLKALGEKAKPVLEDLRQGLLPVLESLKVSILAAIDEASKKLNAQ
Description: The presence of a primary amine group on NVX-207, a unique feature of this derivative compared to other known betulinic acid derived compounds, allows the coupling of other chemical compounds. A commercially available kit from Pierce was used to couple NVX-207 with biotin (Pierce-Sulfo-BED). This procedure allows the identification of NVX-207 binding proteins in protein lysates from any source. This procedure is generically illustrated in FIG. 2. In short, the amine groups of NVX-207 are modified via the Sulfo-NHS moiety of Sulfo-SBED. This derivatized NVX-207 is then incubated in the dark with a lysate or with a purified putative “prey” protein. The bait and prey complex is then captured or trapped by exposing the sample to high-intensity UV light, which activates the phenylazide moiety of Sulfo-SBED. This photoreactive group covalently links to the bound prey protein, capturing the interacting complex. […] The resulting biotin derivatized complex or prey protein can be detected using streptavidin-HRP or an anti-biotin antibody and chemiluminescent detection. […]
NVX-207 (at 5 μg/ml final concentration) coupled to […] with or without a 20-fold molar excess of unlabeled NVX-207 and resolved by 2-D gel electrophoresis. […] Several spots of similar molecular weight (˜24 kDa) and differing IP (in the range of 4.8 to 5.6) were detected by streptavidin-POD after 2-dimensional (2-D) gel electrophoresis.

[3] = tested on: human lung cancer cell line (A549); assay: Global gene expression analysis (Affymetrix gene chips) after NVX-207 treatment; format: cell-based
Experimental: For global gene expression analysis, total RNA was isolated from sub-confluent cell cultures at 4 and 14 hours after addition of NVX-207. […] For each time point and concentration, respectively, total RNA form 3 equally treated cultures was pooled and used for gene chip analysis. The experiment was repeated once. Four and 14 hours after addition of NVX-207, cells were washed with PBS and lysed directly in the culture dish with RNA-Bee according to the manufacturers instructions. Total RNA was then analyzed by using Affymetrix gene chips according to the manufacturers instructions.

[4] = tested on: human lung cancer cell line (A549); assay: NVX-207 IC50/IC80 concentrations in A549 cell cultures; format: cell-based; conditions: A549 cells

## C=CC[C@@H]1[C@H](O)CC[C@@]2(C)[C@H]1CC[C@@H]1[C@@H]2CC[C@]2(C)[C@@H]([C@H](C)CCCC(C)C)CC[C@@H]12 [LY295427]
[1]
  plasma cholesterol levels: reduce plasma cholesterol levels

## C=C(C)[C@@H]1CC[C@]2(C(=O)OCC(N)(CO)CO)CC[C@]3(C)[C@H](CC[C@@H]4[C@@]5(C)CC[C@H](OC(C)=O)C(C)(C)[C@@H]5CC[C@]43C)[C@@H]12 [NVX-207]
[2]; 518A2 cells, in combination with simvastatin
  effect on statin-induced cell death: reduces statin-induced cell death
[2]; NVX-207 0.5 μg/ml
  Survival in %: 94%
[2]; NVX-207 1.0 μg/ml
  Survival in %: 73%
[2]; NVX-207 2.0 μg/ml
  Survival in %: 26%
[2]; NVX-207 4.0 μg/ml
  Survival in %: 0%
Apolipoprotein A1
  binding to Apolipoprotein A1: binds to Apolipoprotein A1
[3]; 20 listed genes incl. LDL receptor, Insulin induced gene 1, 3-hydroxy-3-methylglutaryl-Coenzyme A reductase
  expression of the Table 1 genes with a functional role in lipid and/or glucose metabolism: NVX-207-Upregulated Genes with a Functional Role in Lipid
[3]; gene: 3-hydroxy-3-methylglutaryl-Coenzyme A synthase 1 (soluble)
  Fold-Induction: 1.63
[3]; gene: 24-dehydro-cholesterol reductase
  Fold-Induction: 1.25
[3]; gene: 216814_at
  Fold-Induction: 0.86
[3]; gene: ALEX3 protein
  Fold-Induction: 1.20
[3]; gene: ATP synthase, H+ transporting, mitochondrial F0 complex, subunit s (factor B)
  Fold-Induction: 0.87
[3]; gene: Acetyl-Coenzyme A acetyltransferase 2 (acetoacetyl Coenzyme A thiolase)
  Fold-Induction: 1.44
[3]; gene: Adenylate cyclase 9
  Fold-Induction: 1.50
[3]; gene: Ankyrin repeat domain 6
  Fold-Induction: 1.48
[3]; gene: Apoptosis inhibitor 5
  Fold-Induction: 1.21
[3]; gene: Choline kinase
  Fold-Induction: 1.16
[3]; gene: Chromosome 22 open reading frame 20
  Fold-Induction: 1.56
[3]; gene: Cyclic nucleotide gated channel alpha 1
  Fold-Induction: 0.79
[3]; gene: D15F37 (pseudogene)
  Fold-Induction: 1.39
[3]; gene: DEAD (Asp-Glu-Ala-Asp) box polypeptide 54
  Fold-Induction: 0.66
[3]; gene: Exportin 6
  Fold-Induction: 0.89
[3]; gene: Farnesyl-diphosphate farnesyltransferase 1
  Fold-Induction: 1.89
[3]; gene: Fatty-acid-Coenzyme A ligase, long-chain 3
  Fold-Induction: 1.31
[3]; gene: Glyoxalase I
  Fold-Induction: 1.12
[3]; gene: H63 breast cancer expressed gene
  Fold-Induction: 0.66
[3]; gene: HMT1 hnRNP methyltransferase-like 1
  Fold-Induction: 0.62
[3]; gene: Haspin
  Fold-Induction: 0.92
[3]; gene: Heterogeneous nuclear ribonucleoprotein A2/B1
  Fold-Induction: 1.30
[3]; gene: Homeo box B2
  Fold-Induction: 1.26
[3]; gene: Homo sapiens cDNA FLJ11590 fis, clone HEMBA1003758.
  Fold-Induction: 1.56
[3]; gene: Homo sapiens cDNA FLJ12075 fis, clone HEMBB1002425.
  Fold-Induction: 1.50
[3]; gene: Homo sapiens cDNA FLJ12932 fis, clone NT2RP2004897.
  Fold-Induction: 1.55
[3]; gene: Homo sapiens cDNA FLJ13272 fis, clone OVARC1001004.
  Fold-Induction: 1.58
[3]; gene: Homo sapiens cDNA FLJ26120 fis, clone SYN00419
  Fold-Induction: 2.26
[3]; gene: Homo sapiens cDNA FLJ33420 fis, clone BRACE2020028.
  Fold-Induction: 1.41
[3]; gene: Homo sapiens cDNA FLJ46153 fis, clone TESTI4001037
  Fold-Induction: 0.81
[3]; gene: Homo sapiens cDNA: FLJ23159 fis, clone LNG09628
  Fold-Induction: 1.44
[3]; gene: Homo sapiens full length insert cDNA clone ZE03A06
  Fold-Induction: 0.70
[3]; gene: Homo sapiens mRNA, cDNA DKFZp586O031 (from clone DKFZp586O031)
  Fold-Induction: 1.13
[3]; gene: Homo sapiens mRNA, cDNA DKFZp686L01105 (from clone DKFZp686L01105)
  Fold-Induction: 2.37 and 2.09 and 1.73
[3]; gene: Homo sapiens mRNA, cDNA DKFZp779K0112 (from clone DKFZp779K0112)
  Fold-Induction: 1.48
[3]; gene: Homo sapiens transcribed sequence with weak similarity to protein ref: NP_060265.1
  Fold-Induction: 1.46 and 1.22
[3]; gene: Homo sapiens, clone IMAGE: 5314747, mRNA
  Fold-Induction: 1.77
[3]; gene: Homo sapiens, clone IMAGE: 6205812, mRNA
  Fold-Induction: 1.85
[3]; gene: Hypothetical protein BC008207
  Fold-Induction: 0.86
[3]; gene: Hypothetical protein DKFZp761A132
  Fold-Induction: 0.70
[3]; gene: Hypothetical protein FLB8034 PRO2158
  Fold-Induction: 1.45
[3]; gene: Hypothetical protein FLJ10997 (ZNF654 zinc finger protein 654 [Homo sapiens])
  Fold-Induction: 1.16
[3]; gene: Hypothetical protein FLJ11577
  Fold-Induction: 1.35
[3]; gene: Hypothetical protein FLJ13611
  Fold-Induction: 1.39
[3]; gene: Hypothetical protein FLJ14639
  Fold-Induction: 1.24
[3]; gene: Hypothetical protein FLJ38499
  Fold-Induction: 1.32
[3]; gene: Hypothetical protein LOC125893
  Fold-Induction: 1.34
[3]; gene: Hypothetical protein LOC126661
  Fold-Induction: 1.49
[3]; gene: Hypothetical protein LOC283680
  Fold-Induction: 1.26
[3]; gene: Hypothetical protein MAC30
  Fold-Induction: 1.46
[3]; gene: Hypothetical protein MGC34695
  Fold-Induction: 1.61
[3]; gene: Hypothetical protein PRO1496
  Fold-Induction: 1.46
[3]; gene: Insulin induced gene 1
  Fold-Induction: 2.56
[3]; gene: Isopentenyl-diphosphate delta isomerase
  Fold-Induction: 1.78
[3]; gene: Jerky homolog-like (mouse)
  Fold-Induction: 1.23
[3]; gene: KIAA0101 gene product
  Fold-Induction: 1.23
[3]; gene: KIAA0335 gene product
  Fold-Induction: 1.38
[3]; gene: KIAA1450 protein
  Fold-Induction: 1.21
[3]; gene: Latrophilin 3
  Fold-Induction: 0.77
[3]; gene: Lipin 1
  Fold-Induction: 1.88
[3]; gene: Low density lipoprotein receptor (familial hypercholesterolemia)
  Fold-Induction: 1.78
[3]; gene: Machado-Joseph disease (spinocerebellar ataxia 39)
  Fold-Induction: 1.45
[3]; gene: Melan-A
  Fold-Induction: 0.60
[3]; gene: Mitochondrial ribosomal protein L30
  Fold-Induction: 1.42
[3]; gene: Mucin 4, tracheobronchial
  Fold-Induction: 0.79
[3]; gene: Mucolipin 3
  Fold-Induction: 1.39
[3]; gene: Natural killer-tumor recognition sequence
  Fold-Induction: 1.45 and 1.28
[3]; gene: Neurolysin (metallopeptidase M3 family)
  Fold-Induction: 1.41
[3]; gene: Nicotinamide nucleotide adenylyltransferase 2
  Fold-Induction: 0.73
[3]; gene: Pantothenate kinase 3
  Fold-Induction: 1.23
[3]; gene: Phorbol-12-myristate-13-acetate-induced protein 1
  Fold-Induction: 1.26
[3]; gene: Phosphodiesterase 4A, cAMP-specific (phosphodiesterase E2 dunce homolog, Drosophila)
  Fold-Induction: 0.78
[3]; gene: Pinin, desmosome associated protein
  Fold-Induction: 1.17
[3]; gene: Protocadherin 11 Y-linked
  Fold-Induction: 1.37
[3]; gene: Putative translation initiation factor
  Fold-Induction: 1.14
[3]; gene: Pyruvate dehydrogenase phosphatase isoenzyme 2
  Fold-Induction: 1.40
[3]; gene: Receptor-interacting factor 1
  Fold-Induction: 1.10
[3]; gene: Ring finger protein 125 (T-cell RING activation protein 1, TRAC-1)
  Fold-Induction: 3.36
[3]; gene: SKI-interacting protein
  Fold-Induction: 1.10
[3]; gene: SOCS box-containing WD protein SWiP-1
  Fold-Induction: 1.20
[3]; gene: SP140 nuclear body protein
  Fold-Induction: 0.78
[3]; gene: SPTF-associated factor 65 gamma
  Fold-Induction: 0.69
[3]; gene: Solute carrier family 2 (facilitated glucose transporter), member 6
  Fold-Induction: 1.76
[3]; gene: Solute carrier family 7, (cationic amino acid transporter, y+ system) member 11
  Fold-Induction: 1.67
[3]; gene: Squalene epoxidase
  Fold-Induction: 1.60
[3]; gene: Stearoyl-CoA desaturase (delta-9-desaturase)
  Fold-Induction: 1.41
[3]; gene: Sterol-C4-methyl oxidase-like
  Fold-Induction: 1.87
[3]; gene: Sterol-C5-desaturase (ERG3 delta-5-desaturase homolog, fungal)-like
  Fold-Induction: 1.37
[3]; gene: Surfactant, pulmonary-associated protein B
  Fold-Induction: 1.43
[3]; gene: Syntaxin 16
  Fold-Induction: 0.86
[3]; gene: Thyroid hormone receptor interactor 11
  Fold-Induction: 1.70
[3]; gene: Tumor necrosis factor (ligand) superfamily, member 9
  Fold-Induction: 1.47
[3]; gene: Ubiquitin specific protease 6 (Tre-2 oncogene)
  Fold-Induction: 1.38
[3]; gene: Ubiquitin specific protease 32
  Fold-Induction: 1.25
[3]; gene: Zinc finger protein 226
  Fold-Induction: 1.46
[3]; gene: Zinc finger protein 430
  Fold-Induction: 1.24
[3]; within 4 hours of the addition of NVX-207
  upregulation of INSIG-1: up to 3 fold
[4]
  IC50: 1.5 µg/mL (≈ 2.49 µM)
  IC80: 2.0 µg/mL (≈ 3.32 µM)

## CCC(C)(C)C(=O)O[C@H]1C[C@@H](C)C=C2C=C[C@H](C)[C@H](CC[C@@H]3C[C@@H](O)CC(=O)O3)[C@H]21 [Simvastatin, reference compound]
[2]; Simvastatin 0.5 μmol
  Survival (%): 96%
[2]; Simvastatin 1.0 μmol
  Survival (%): 40%
[2]; Simvastatin 2.0 μmol
  Survival (%): 12%
[2]; Simvastatin 4.0 μmol
  Survival (%): 3%

Source: patent publication US20060252733A1, “Betulin, betulin derivatives, betulinic acid and betulinic acid derivatives as novel therapeutics in the treatment of disease of lipid and/or glucose metabolism” (Novelix Pharmaceuticals, Inc., priority 2005, published 2006)
